We go through five compounds from patent publication US8110703B2, “Retinoid derivative and pharmaceutical composition and use thereof” (Anhui Medical University, priority 2008, dated 2012).

Holding throughout (type): cell-based
One test has as its system A549 lung cancer cells. The test is described as follows: MTT cell growth and proliferation experiment, A549. Further details: key to Inhibition Rate: (control OD570 − test OD570)/control OD570, as fraction. As to conditions: 3 d; for OD Value (x ± s): A549, MTT OD 570 nm; for Inhibition Rate: A549, MTT, given as fraction. On the procedure:
(§1) 1.1 Reagents 12 retinoic acid derivatives with the final concentrations of 1 ug/ml, 5 ug/ml and 10 ug/ml are synthesized by the Pharmaceutical College of Anhui Medical University using DMSO and anhydrous ethanol, separately packaged for storage at −20° C. and kept out of the light when used, and the final concentration of DMSO is less than 0.1%. MTT is purchased from Sigma Corp. The Coulter DNA detection kit is presented by the Central Lab of Anhui Provincial Hospital. AFP and γ-GT are provided by the Clinical Lab of No. 105 Hospital of PLA. Apoptosis-Hoechst staining kit is purchased from Beyotime Company.
(§2) 1.2 Cell Culture A549, and HpeG2 cells are stored by our lab. Cell growth condition: DMEM (from GIBICO Company) culture solution is added with 10% of calf serum (purchased from the Hangzhou Sijiqing Biological Engineering Material Co., Ltd.) to culture in a cell culture incubator (37° C., 5% CO2) with saturated humidity.
(§3) 1.3 Cell Growth and Proliferation Experiments MTT process is used. Cells in the logarithmic phase are picked and seeded on a 96-hole culture board with a cell concentration of 5×10^7/L. Each hole of the board is 200 ul. The next day after the adherence, the original solution is discarded, and the culture solution is added. The cells are divided into 1 ug/ml retinoic acid derivative groups, 5 ug/ml retinoic acid derivative groups, 10 ug/ml retinoic acid derivative groups, blank control groups, cell control groups, solvent control groups (1‰ DMSO and anhydrous ethanol) (17 in total) according to the concentrations thereof, incubated for 3d, added with MTT (5 g/L) of 20 ul/hole for incubation at 37° C. for 4 h. The original solution is carefully discarded and dried, and DMSO of 20 ul/hole is added to dissolve crystals, followed by vibrating for 10 min and determining the OD value at 570 nm. Each concentration is corresponding to 5 holes, and each group calculates the average of 3 experiments to calculate the inhibition rate to the cell growth according to the optical density (OD) average of each hole in each group and the following equation: inhibition rate %=(control hole OD570−experimental hole OD570)/control hole OD5700*100%. The process above is repeated for three times. The second experiment takes the maximum concentration (10 […]) for culture respectively for 1, 2, 3 and 7 days and repeat for three times.

In another test the test system is liver cancer HepG2 cells. Description: MTT cell growth and proliferation experiment, HepG2. Also on record: key to Inhibition Rate: (control OD570 − test OD570)/control OD570, as fraction. As to conditions: 3 d; for OD Value (x ± s): HepG2, MTT OD 570 nm; for Inhibition Rate: HepG2, MTT, fraction. The method, then: as §1, §2, §3
The test system of a further test is NB4 cells. The test is described as follows: Cell cycle analysis by flow cytometer, NB4. Also on record: S %: dose or concentration left out as unconfirmed. As to conditions: 72 h. On the procedure:
(§4) Retinoic acid derivatives and fenretinide are prepared as a storage solution of 10 mg/mL by anhydrous ethanol and stored at […] and kept out of light.
(§5) NB4 cells and K562 cells are inoculated with an initial concentration of 2*10^5/ml in the RPMI1640 culture solution having 10% of calf serum (FBS), 100 u/ml of penicillin, 100 Lg/ml of streptomycin and 2 mmol/L of glutamine for suspension culture (37° C., 5% CO2). Change the solution every 2-3 days.
(§6) For the cells above acted by the retinoic acid derivatives and fenretinide ([…]) for 72 h, about 10^6 of them are collected, washed by PBS twice, fixed by 70% of cold ethanol over 24 h, washed by PBS twice, added with 5 ug/ml of propidium iodide for staining and detected by a flow cytometer from which the data are analyzed and processed by the multi-cycle software.
For orientation: Flow cytometry measures light scatter and fluorescence of single cells or particles in a stream.

A further test deals with K562 cells. The test is described as follows: Cell cycle analysis by flow cytometer, K562. Also on record: S %: dose or concentration left out as unconfirmed. As to conditions: 72 h. The method, then: as §4, §5, §6

`CC1=C(/C=C/C(C)=C/C=C/C(C)=C/C(=O)Oc2ccc(OC(F)(F)F)cc2)C(C)(C)CCC1` [Example 5a-01, (4-trifluoromethoxyphenyl)-(all-trans)-3,7-dimethyl-9-(2,6,6-trimethyl-1-cyclohexen-1-yl)-2,4,6,8-nonatetraenoate]: the “OD Value (x ± s)” value in the test on A549 lung cancer cells (1 ug/ml, solvent ethanol) is recorded as 1.962 ± 0.225; in the test on A549 lung cancer cells (5 ug/ml, solvent ethanol), 1.754 ± 0.138; in the test on A549 lung cancer cells (10 ug/ml, solvent ethanol), 1.732 ± 0.317; in the test with liver cancer HepG2 cells (1 ug/ml, solvent ethanol), 1.57 ± 0.39; in the test with liver cancer HepG2 cells (5 ug/ml, solvent ethanol), 1.51 ± 0.30; with liver cancer HepG2 cells (10 ug/ml, solvent ethanol) it was 1.49 ± 0.23. The “Inhibition Rate” value is recorded as −0.051 in the test on A549 lung cancer cells (1 ug/ml, solvent ethanol); 0.060 in the test on A549 lung cancer cells (5 ug/ml, solvent ethanol); 0.072 with A549 lung cancer cells (10 ug/ml, solvent ethanol); 0.07 with liver cancer HepG2 cells (1 ug/ml, solvent ethanol); 0.11 with liver cancer HepG2 cells (5 ug/ml, solvent ethanol); 0.12 in the test with liver cancer HepG2 cells (10 ug/ml, solvent ethanol). Also, the G1 % turned out to be 59.28% in the test on NB4 cells and 32.6% in the test on K562 cells. The G2 % with NB4 cells was found to be 4.98%; with K562 cells, 12.5%. In addition, the S % with NB4 cells is given as 35.74%; in the test on K562 cells, 55.0%.

Take `CC1=C(/C=C/C(C)=C/C=C/C(C)=C/C(=O)Oc2cccc(OC(F)(F)F)c2)C(C)(C)CCC1` [Example 5a-02, (3-trifluoromethoxyphenyl)-(all-trans)-3,7-dimethyl-9-(2,6,6-trimethyl-1-cyclohexen-1-yl)-2,4,6,8-nonatetraenoate]: the “OD Value (x ± s)” value with A549 lung cancer cells (1 ug/ml, solvent DMSO (D)) is recorded as 1.843 ± 0.179; in the test with A549 lung cancer cells (5 ug/ml, solvent DMSO (D)) it was 1.817 ± 0.142; with A549 lung cancer cells (10 ug/ml, solvent DMSO (D)), 1.689 ± 0.154; in the test with liver cancer HepG2 cells (1 ug/ml, solvent ethanol), 1.27 ± 0.44; in the test with liver cancer HepG2 cells (5 ug/ml, solvent ethanol) it was 1.13 ± 0.47; in the test with liver cancer HepG2 cells (10 ug/ml, solvent ethanol), 1.11 ± 0.61. Moreover, the “Inhibition Rate” value in the test on A549 lung cancer cells (1 ug/ml, solvent DMSO (D)) amounted to 0.012; with A549 lung cancer cells (5 ug/ml, solvent DMSO (D)), 0.027; in the test on A549 lung cancer cells (10 ug/ml, solvent DMSO (D)), 0.095; in the test on liver cancer HepG2 cells (1 ug/ml, solvent ethanol), 0.25; with liver cancer HepG2 cells (5 ug/ml, solvent ethanol), 0.33; in the test with liver cancer HepG2 cells (10 ug/ml, solvent ethanol) it was 0.35. Also, the G1 % is recorded as 60.06% in the test with NB4 cells and 38.2% with K562 cells. Besides, the G2 % came out at 4.91% in the test on NB4 cells and 7.7% with K562 cells. For the same compound, the figures for the S % in the test on NB4 cells and with K562 cells were 35.03% and 54.2%, respectively.

Regarding `CC1=C(/C=C/C(C)=C/C=C/C(C)=C/C(=O)Oc2cccc(C(F)(F)F)c2)C(C)(C)CCC1` [Example 2a-02, (3-trifluoromethylphenyl)-(all-trans)-3,7-dimethyl-9-(2,6,6-trimethyl-1-cyclohexen-1-yl)-2,4,6,8-nonatetraenoate], the “OD Value (x ± s)” value in the test with A549 lung cancer cells (1 ug/ml, solvent DMSO (D)) came out at 1.735 ± 0.048; in the test on A549 lung cancer cells (5 ug/ml, solvent DMSO (D)), 1.621 ± 0.070; in the test on A549 lung cancer cells (10 ug/ml, solvent DMSO (D)), 1.580 ± 0.207; with liver cancer HepG2 cells (1 ug/ml, solvent ethanol), 1.19 ± 0.52; in the test on liver cancer HepG2 cells (5 ug/ml, solvent ethanol), 1.13 ± 0.46; with liver cancer HepG2 cells (10 ug/ml, solvent ethanol), 0.94 ± 0.49. The “Inhibition Rate” value in the test on A549 lung cancer cells (1 ug/ml, solvent DMSO (D)) is 0.070; in the test on A549 lung cancer cells (5 ug/ml, solvent DMSO (D)), 0.131; with A549 lung cancer cells (10 ug/ml, solvent DMSO (D)), 0.144; with liver cancer HepG2 cells (1 ug/ml, solvent ethanol), 0.29; in the test on liver cancer HepG2 cells (5 ug/ml, solvent ethanol) it was 0.33; in the test with liver cancer HepG2 cells (10 ug/ml, solvent ethanol), 0.45. This compound also showed a G1 % in the test on K562 cells of 35.4%. In the test on K562 cells, the G2 % came to 9.9%. For the same compound, in the test on K562 cells, the S % worked out at 54.6%.

`CC1=C(/C=C/C(C)=C/C=C/C(C)=C/C(=O)Oc2ccc(C(F)(F)F)cc2)C(C)(C)CCC1` [Example 2a-01, (4-trifluoromethylphenyl)-(all-trans)-3,7-dimethyl-9-(2,6,6-trimethyl-1-cyclohexen-1-yl)-2,4,6,8-nonatetraenoate]: the “OD Value (x ± s)” value is listed as 1.878 ± 0.158 in the test with A549 lung cancer cells (1 ug/ml, solvent ethanol); 1.487 ± 0.175 with A549 lung cancer cells (5 ug/ml, solvent ethanol); 1.458 ± 0.066 with A549 lung cancer cells (10 ug/ml, solvent ethanol); 1.38 ± 0.56 in the test with liver cancer HepG2 cells (1 ug/ml, solvent ethanol); 1.31 ± 0.57 with liver cancer HepG2 cells (5 ug/ml, solvent ethanol); 1.30 ± 0.55 in the test on liver cancer HepG2 cells (10 ug/ml, solvent ethanol). Moreover, the “Inhibition Rate” value in the test with A549 lung cancer cells (1 ug/ml, solvent ethanol) was −0.006; in the test on A549 lung cancer cells (5 ug/ml, solvent ethanol), 0.203; in the test on A549 lung cancer cells (10 ug/ml, solvent ethanol), 0.219; in the test with liver cancer HepG2 cells (1 ug/ml, solvent ethanol), 0.18; in the test with liver cancer HepG2 cells (5 ug/ml, solvent ethanol), 0.23; in the test with liver cancer HepG2 cells (10 ug/ml, solvent ethanol), 0.24. In the test with K562 cells, this compound displayed a G1 % of 36.1%. Further, the G2 % in the test with K562 cells is on record as 12.5%. The S % in the test on K562 cells is on record as 51.4%.

`CC1=C(/C=C/C(C)=C/C=C/C(C)=C/C(=O)Oc2ccc(N)c(C(F)(F)F)c2)C(C)(C)CCC1` [Example 4a-01, (4-amino-3-trifluoromethylphenyl)-(all-trans)-3,7-dimethyl-9-(2,6,6-trimethyl-1-cyclohexen-1-yl)-2,4,6,8-nonatetraenoate]: in the test on liver cancer HepG2 cells (1 ug/ml, solvent not given), the “OD Value (x ± s)” value turned out to be 1.72 ± 0.44 and the “Inhibition Rate” value is recorded as −0.009. Moreover, in the test on liver cancer HepG2 cells (5 ug/ml, solvent not given), the “OD Value (x ± s)” value came to 1.63 ± 0.36 and the “Inhibition Rate” value amounted to 0.04. For the same compound, in the test with liver cancer HepG2 cells (10 ug/ml, solvent not given), the “OD Value (x ± s)” value is given as 1.57 ± 0.30 and the “Inhibition Rate” value stood at 0.07. In the test on NB4 cells, this compound displayed a G1 % of 59.15%, a G2 % of 7.07% and a S % of 33.78%. In the test on K562 cells, this compound yielded a G1 % of 39.1%, a G2 % of 6.9% and a S % of 53.9%.
